Experiment [1] concerns the target T1, Angiotensin-converting enzyme (Homo sapiens, UniProt P12821). The experiment in a line: Inhibition of human fully glycosylated ACE N-terminal domain expressed in CHO cells using Cbz-Phe-His-Leu as substrate preincubated for 15 mins followed by substrate addition measured after 10 mins by fluorescence spectrophotometric analysis.
Experiment [2] addresses T1, Angiotensin-converting enzyme. Nature of the experiment: Inhibition of human fully glycosylated ACE C-terminal domain expressed in CHO cells using Cbz-Phe-His-Leu as substrate preincubated for 15 mins followed by substrate addition measured after 10 mins by fluorescence spectrophotometric analysis.
For experiment [3] the target is unchanged. The experiment in a line: Inhibition of human fully glycosylated ACE N-terminal domain expressed in CHO cells using MCA-RPPGFSAFK(Dnp)-OH as substrate preincubated for 15 mins followed by substrate addition measured after 10 mins by fluorescence spectrophotometric analysis.
Experiment [4] has the same target. Nature of the experiment: Inhibition of human fully glycosylated ACE C-terminal domain expressed in CHO cells using MCA-RPPGFSAFK(Dnp)-OH as substrate preincubated for 15 mins followed by substrate addition measured after 10 mins by fluorescence spectrophotometric analysis.
Experiment [5] shares this target. The experiment in a line: Inhibition of human fully glycosylated ACE N-terminal domain expressed in CHO cells using Cbz-Phe-His-Leu as substrate preincubated for 15 mins followed by substrate addition measured after 10 mins by Morrison's plot analysis.
Experiment [6] shares this target. Nature of the experiment: Inhibition of human fully glycosylated ACE C-terminal domain expressed in CHO cells using Cbz-Phe-His-Leu as substrate preincubated for 15 mins followed by substrate addition measured after 10 mins by Morrison's plot analysis.

What is called IC50 is the concentration that inhibits the measured activity by half. A lower IC50 goes with greater potency. The term Ki denotes the dissociation constant of the complex between target and ligand, obtained from inhibition or displacement. A high value points to a looser hold on the target.

T1 sequence (P12821 whole entry, the tested form may be a part): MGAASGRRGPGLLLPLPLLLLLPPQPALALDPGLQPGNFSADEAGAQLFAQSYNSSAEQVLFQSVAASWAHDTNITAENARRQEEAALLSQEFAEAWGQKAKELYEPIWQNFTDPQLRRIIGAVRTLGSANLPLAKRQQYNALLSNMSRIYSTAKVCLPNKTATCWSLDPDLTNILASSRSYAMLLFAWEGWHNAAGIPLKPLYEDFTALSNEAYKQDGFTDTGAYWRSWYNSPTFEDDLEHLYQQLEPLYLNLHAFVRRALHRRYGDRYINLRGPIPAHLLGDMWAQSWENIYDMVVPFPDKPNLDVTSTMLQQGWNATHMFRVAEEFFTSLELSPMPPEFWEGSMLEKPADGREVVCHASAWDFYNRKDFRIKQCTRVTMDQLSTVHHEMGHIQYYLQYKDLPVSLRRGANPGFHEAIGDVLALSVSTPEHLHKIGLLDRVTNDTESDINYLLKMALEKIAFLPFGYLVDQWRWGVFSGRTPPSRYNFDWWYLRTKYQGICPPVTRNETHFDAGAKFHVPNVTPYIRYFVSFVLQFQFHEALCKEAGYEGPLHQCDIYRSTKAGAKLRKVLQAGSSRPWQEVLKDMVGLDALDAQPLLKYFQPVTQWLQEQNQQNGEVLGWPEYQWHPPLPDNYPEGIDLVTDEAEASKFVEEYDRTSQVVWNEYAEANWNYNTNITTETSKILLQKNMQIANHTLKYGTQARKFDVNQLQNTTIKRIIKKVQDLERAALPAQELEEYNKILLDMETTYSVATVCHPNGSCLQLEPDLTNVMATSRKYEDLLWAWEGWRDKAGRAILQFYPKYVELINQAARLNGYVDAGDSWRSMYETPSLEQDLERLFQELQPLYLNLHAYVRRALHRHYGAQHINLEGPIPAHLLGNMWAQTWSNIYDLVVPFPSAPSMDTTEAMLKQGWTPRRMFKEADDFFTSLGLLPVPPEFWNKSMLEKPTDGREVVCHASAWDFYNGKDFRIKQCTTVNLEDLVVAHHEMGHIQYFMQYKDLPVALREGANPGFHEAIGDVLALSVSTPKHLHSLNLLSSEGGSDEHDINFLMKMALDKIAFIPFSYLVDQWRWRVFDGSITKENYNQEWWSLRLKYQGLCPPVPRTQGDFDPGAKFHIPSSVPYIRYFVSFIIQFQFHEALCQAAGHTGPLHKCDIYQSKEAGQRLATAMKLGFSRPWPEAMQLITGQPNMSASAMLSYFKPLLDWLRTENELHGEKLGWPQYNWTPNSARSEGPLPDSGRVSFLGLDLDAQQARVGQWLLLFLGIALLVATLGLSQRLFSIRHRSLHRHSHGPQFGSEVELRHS

Consider `O=C(N[C@H]1CCS[C@H]2CCC[C@@H](C(=O)O)N2C1=O)[C@H](Cc1ccccc1)SS[C@@H](Cc1ccccc1)C(=O)N[C@H]1CCS[C@H]2CCC[C@@H](C(=O)O)N2C1=O`, for which the IC50 in experiment [1] amounted to 2200 nM; in experiment [2] it was 2800 nM; in experiment [3], 2100 nM; in experiment [4], 1800 nM.

`O=C(N[C@H]1CCS[C@H]2CCC[C@@H](C(=O)O)N2C1=O)[C@@H](S)Cc1ccccc1` [OMAPATRILAT]: the Ki came to 0.015 nM in experiment [5] and 0.016 nM in experiment [6].
